Experimental data: paper PMC7617978, “Anti-trypanosomal quinazolines targeting lysyl-tRNA synthetases show partial efficacy in a mouse model of acute Chagas disease” (Science translational medicine, 2025)

System: T. cruzi CL Brener strain
Assay: Bioluminescent mouse model of acute T. cruzi infection
Type: in vivo, BALB/c mice
Details: 50 mg/kg BID oral, 5 days, from 10 days post-infection, bioluminescence imaging
Description: Female BALB/c mice (aged 6-7 weeks), purchased from Charles River (UK), were maintained under specific pathogen-free conditions in individually ventilated cages, with a 12 h light/dark cycle. They had access to food and water ad libitum. Mice were infected by intraperitoneal injection (i.p) of 1x10^3 bloodstream trypomastigotes derived from CB17 SCID mouse blood.
Compounds were prepared in 5% (v/v) dimethyl sulfoxide /95% HPMC suspension vehicle (0.5% (w/v) hydroxypropyl methylcellulose, 0.5% (v/v) benzyl alcohol, 0.4% (v/v) Tween 80 in Milli-Q water). Mice were treated as outlined in Fig. 5, with compounds administered by oral gavage. At different days after infection, mice were injected with d-luciferin (150 mg/kg) i.p., anaesthetized using 2.5% (v/v) gaseous isoflurane and imaged using an IVIS Spectrum (Revvity, Hopkinton, MA, USA) 5-10 min later. To estimate parasite burden, mice ventral and dorsal regions of interest were drawn using Living Image 4.7.3 to quantify bioluminescence expressed as total flux (photons/second; p/s). Regions of interest data from infected and not-infected mice were used as controls. Exposure times varied between 30 sec and 5 min, depending on the signal intensity.

Cc1nc(N)c2c(F)c(F)c(SC3CCCCC3)c(F)c2n1 [DMU759, 7-(Cyclohexylthio)-5,6,8-trifluoro-2-methylquinazolin-4-amine]
reduction of parasite burden (parasitemia): up to 81%
